From US6407109B1, “Pyrrolyl tetrahydroquinoxalin diones, their production and use in the treatment of diseases” (Abbott Laboratories, priority 1995, dated 2002)

test system: not given; experiment: not given; settings: not given

Row | SMILES | melting point
1 | O=C(O)Cn1c(=O)c(=O)[nH]c2cc([N+](=O)[O-])c(-n3ccc(C(=O)N4CCN(CCc5ccccc5)CC4)c3)cc21 [Example 20, 1-Carboxymethyl-6-nitro-7-(3-(4-(2-phenylethyl)-1-piperazinyl-carbonyl)-1-pyrrolyl)quinoxaline-2,3(1H, 4H)-dione] | > 250 °C (dec.)
2 | CCOC(=O)Cn1c(=O)c(=O)[nH]c2cc([N+](=O)[O-])c(-n3ccc(C(=O)NCc4ccc([N+](=O)[O-])cc4)c3)cc21 | > 300 °C
3 | CCOC(=O)Cn1c(=O)c(=O)[nH]c2cc([N+](=O)[O-])c(-n3ccc(C(=O)NCc4ccccc4)c3)cc21 [Example 8, 7-(3-Benzylcarbamoyl-1-pyrrolyl)-1-ethoxycarbonylmethyl-6-nitro-quinoxaline-2,3(1H,4H)-dione] | 223 °C (dec.)
4 | O=C(O)Cn1c(=O)c(=O)[nH]c2cc([N+](=O)[O-])c(-n3ccc(C(=O)NCCCc4ccccc4)c3)cc21 [Example 21, 1-Carboxymethyl-6-nitro-7-(3-(3-phenylpropylcarbamoyl)-1-pyrrolyl)quinoxaline-2,3(1H,4H)-dione] | 224 to 227 °C (dec.)
5 | O=C(O)Cn1c(=O)c(=O)[nH]c2cc([N+](=O)[O-])c(-n3ccc(C(=O)NCc4ccncc4)c3)cc21 [Example 22, 1-Carboxymethyl-6-nitro-7-(3-(4-pyridinylmethylcarbamoyl)-1-pyrrolyl)quinoxaline-2,3(1H,4H)-dione] | > 300 °C
6 | O=C(O)Cn1c(=O)c(=O)[nH]c2cc([N+](=O)[O-])c(-n3ccc(C(=O)NCc4ccc([N+](=O)[O-])cc4)c3)cc21 | > 210 °C (dec.)
7 | CCOC(=O)Cn1c(=O)c(=O)[nH]c2cc([N+](=O)[O-])c(-n3ccc(C(=O)NCc4ccncc4)c3)cc21 [Example 11, 1-Ethoxycarbonylmethyl-6-nitro-7-(3-(4-pyridinylmethylcarbamoyl)-1-pyrrolyl)quinoxaline-2,3(1H,4H)-dione] | > 300 °C
8 | CCOC(=O)Cn1c(=O)c(=O)[nH]c2ccc3ccc(-n4ccc(C(=O)O)c4)cc3c21 [Example 3, 9-(3-Carboxy-1-pyrrolyl)-1-(ethoxycarbonylmethyl)benzo[f]-quinoxaline-2,3(1H,4H)-dione] | 292 to 295 °C
9 | O=C(O)Cn1c(=O)c(=O)[nH]c2ccc3c(-n4ccc(C(=O)O)c4)cccc3c21 [Example 15, 1-Carboxymethyl-7-(3-carboxy-1-pyrrolyl)benzo[f]quinoxaline-2,3(1H, 4H)-dione] | > 300 °C

test system: AMPA receptor; experiment: Binding of 3H-AMPA to rat cerebral membrane material; settings: compared with 1-(ethoxycarbonylmethyl)-7-(3-formyl-1-pyrrolyl)-6-nitroquinoxaline-2,3(1H,4H)-dione
Experimental: The pharmacological activity of the compounds I was investigated on isolated membrane material from rat cerebra. For this purpose, the membrane material was treated in the presence of the compounds according to the invention with the radiolabeled substance ^3H-2-amino-3-hydroxy-5-methyl-4-isoxazolepropionic acid (^3H-AMPA), [^3H]-glycine or [^3H]-kainate which bind to specific receptors (AMPA, NMDA or kainate receptors). The radioactivity of the treated membranes was then measured by scintillation counting. It was possible to determine from the bound radioactivity the amounts of bound ^3H-AMPA, [^3H]-glycine or [^3H]-kainate, or in each case the displaced amounts of these radiolabeled substances. […]
To prepare the membrane material, freshly removed rat cerebra were homogenized together with 15 times the volume of a buffer solution A composed of 30 mM tris(hydroxymethyl)methylamine hydrochloride (TRIS-HCl) and 0.5 mM ethylenediaminetetraacetic acid (EDTA), pH 7.4, using an Ultra-Turrax^R. The suspension was centrifuged at 48000 g for 20 min. […] After measurement of the radioactivity of the bound ^3H-AMPA in the membrane material by scintillation counting, the KI was determined by regression analysis of the displacement plots.

Row | SMILES | activity in 3H-AMPA binding relative to the closely related aldehyde (Example 80 in EP 572 852)
10 | CCOC(=O)Cn1c(=O)c(=O)[nH]c2cc([N+](=O)[O-])c(-n3ccc(C(=O)O)c3)cc21 [Example 2, 7-(3-Carboxy-1-pyrrolyl)-1-(ethoxycarbonylmethyl)-6-nitroquin-oxaline-2,3(1H,4H)-dione] | distinctly more active

same assay, conditions: isolated membrane material from rat cerebra, 3H-AMPA, incubated on ice for 60 min; read-out: kI (dissociation constant, displacement of 3H-AMPA)

Row | SMILES | Ki
11 | CCOC(=O)Cn1c(=O)c(=O)[nH]c2cc([N+](=O)[O-])c(-n3ccc(C(=O)O)c3)cc21 [Example 2, 7-(3-Carboxy-1-pyrrolyl)-1-(ethoxycarbonylmethyl)-6-nitroquin-oxaline-2,3(1H,4H)-dione] | < 10 µM
